Source: US20170016886A1, “INDUCED PLURIPOTENT STEM CELL MODEL OF NOONAN SYNDROME AND USE THEREOF” (KOREA ADVANCED INSTITUTE OF SCIENCE AND TECHNOLOGY, priority 2014, published 2017)

How the values were obtained:
[1] = test system: neural rosettes chemically differentiated from NS-iPSCs; experiment: mRNA expression of ectoderm, neural rosette and neural marker genes in neural rosettes chemically differentiated from NS-iPSCs (RT-PCR, q-PCR); type: cell-based, human; conditions: stepwise treatment with both dorsomorphin (5 μM) and SB431542 (10 μM) together, versus normal control (H9, CRL12)
Experimental: To investigate whether or not the neural marker genes were normally expressed in the neural rosettes chemically differentiated from NS-iPSCs, the mRNA expression levels of the ectoderm genes PAX6, ZIC1, NESTIN, and VIMENTIN, and the NR genes PLZF, NR2F1, HES5, and DACH1, and the neural genes TUJ1, ASCL1, and NF1 were measured in the chemically differentiated NS-EBs. Particularly, the neural rosettes chemically differentiated from NS-iPSCs by the same manner as described in Example <6-1> were prepared. […] The expressions of those genes were observed by RT-PCR at mRNA level. As for the normal control, the neural rosettes chemically differentiated from H9 cell line and CRL12 in Example <6-1> were used. […] The expression of NR2F1 gene was measured by q-PCR at mRNA level. As the control group for the normalization of the expression level, GAPDH gene was used so that the expression was also measured. ΔCt value of each gene was calculated by the difference between Ct value of GAPDH and Ct value of NR2F1 gene. As for the control, the human normal embryonic stem cell line H9 and the human normal fibroblast-derived iPSCs (CRL12) were induced into neural rosettes via chemical treatments as described in Example <6-1>. The expressions of those neural rosettes were compared with the gene expression of NS-NR. The results are presented by the fold change calculated by the mathematical formula 1 above.

[2] = test system: NS-iPSCs (Noonan syndrome patient-derived induced pluripotent stem cells); experiment: Chemically directed differentiation of NS-iPSCs into embryoid bodies and neural rosettes, cell morphology; type: cell-based, human; conditions: stepwise treatment with both dorsomorphin (5 μM) and SB431542 (10 μM) together; NS-iPSC #4 and #5; compared with natural differentiation and normal control (H9, CRL12)
Source text: Due to the abnormality in the signal transduction system in Noonan syndrome, EBs and neural rosettes naturally differentiated from NS-iPSCs were abnormally developed. To overcome this problem, the present inventors induced chemically directed differentiation of EBs and neural rosettes from NS-iPSCs by using dorsomorphin (DM) and SB431542 according to the schematic diagram of FIG. 18 (FIG. 18 and Table 6). Particularly, the colonies of NS-iPSC #4 and NS-iPSC #5 induced by the same manner as described in Example <2-1> were quartered by using 1 ml insulin syringe. The quartered NS-iPSCs were loaded on ultra-low attachment dish (SPL life sciences Co., Ltd, Korea), which were resuspended in 4 ml of embryoid body differentiation media which was the DMEM/F12 (Invitrogen, USA) containing 10% serum replacement (SR; GIBCO, USA). The resuspended NS-iPSCs were cultured for 4 days to induce the differentiation into NS-EBs. Then, the differentiated NS-EBs were obtained and cultured for 4˜5 days on the matrigel (1:50, BD biosciences, USA) coated dish in the neural rosette media which consists of DMEM/F12 supplemented with N2, B27 and […] of bFGF (FGF2, R&D systems, USA). The generated Noonan syndrome-derived neural rosettes were mechanically selected and placed on the fibronectin (BD biosciences, USA) coated dish, followed by culture in the neural rosette media for 4˜5 days. […]

Compound: NC(=O)c1ccc(-c2nc(-c3ccc4c(c3)OCO4)c(-c3ccccn3)[nH]2)cc1 [SB431542]
- expression of NR2F1 ([1]; mRNA level in NS neural rosettes): decreased
- expressions of ectoderm, neural rosette, and neural marker genes ([1]; mRNA level): adjusted to the nearly normal level
- cell morphology of the chemically differentiated EBs and neural rosettes [2]: recovered to a normal shape
